# According to PMC12965331 (Biochemistry, 2025):
# Tests used:
# NSP14 ExoN = conditions: cited from earlier work
# NSP10–14 ExoN = NSP10–14 ExoN (Severe acute respiratory syndrome coronavirus 2, UniProt P0DTD1); format: biochemical, SARS-CoV-2
# HNMT = HNMT (Homo sapiens, UniProt P50135); assay: HNMT specificity screen; format: biochemical
# RNase H = RNase H (Escherichia coli, UniProt P0A7Y4)
# RNase H, sequence (P0A7Y4 whole entry): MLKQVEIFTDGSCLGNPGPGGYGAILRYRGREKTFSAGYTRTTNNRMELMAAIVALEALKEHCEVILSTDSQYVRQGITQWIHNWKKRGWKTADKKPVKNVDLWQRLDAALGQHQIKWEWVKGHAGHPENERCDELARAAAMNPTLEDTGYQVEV
# HNMT, sequence (P50135 whole entry): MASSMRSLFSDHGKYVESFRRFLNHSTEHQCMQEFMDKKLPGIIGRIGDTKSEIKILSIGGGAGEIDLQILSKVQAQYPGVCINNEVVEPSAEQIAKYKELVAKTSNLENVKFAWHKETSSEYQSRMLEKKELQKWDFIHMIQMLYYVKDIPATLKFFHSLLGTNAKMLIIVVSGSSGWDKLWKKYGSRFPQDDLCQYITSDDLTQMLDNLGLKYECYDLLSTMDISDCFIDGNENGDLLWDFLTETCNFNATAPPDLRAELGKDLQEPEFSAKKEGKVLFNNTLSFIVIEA
Structure (SMILES),"inhibition of NSP14 ExoN activity, affinity (NSP14 ExoN)","effect on VMAX, ExoN RNA substrate (NSP10–14 ExoN)",mechanism of inhibition with respect to ExoN RNA substrate (NSP10–14 ExoN),change in KM for ExoN RNA substrate (NSP10–14 ExoN; concentrations below 2 μM of compound),activity against HNMT (off-target) (HNMT),activity against RNase H (off-target) (RNase H),potency difference between NSP14 ExoN and RNase H (RNase H)
O=C1C=C2C(=CCOC2O)O1 (stereo not shown) [Patulin],micromolar affinity,–,–,–,–,–,–
CC(=O)N1CCN(c2ccc(C(=O)N3CCN(Cc4ccccc4)CC3)nn2)C(=O)C1 [NCGC00537446],–,more clearly influenced,noncompetitive,no significant change,some activity,some activity,greater than 10 fold
